These are literature values, as cited in patent publication US20240009181A1, “METHOD FOR THE TREATMENT AND PROPHYLAXIS OF SUBSTANCE-RELATED AND/OR ADDICTIVE DISORDERS INCLUDING SUBSTANCE/MEDICATION-INDUCED DEPRESSIVE DISORDERS, BIPOLAR AND RELATED DISORDERS, AND ANXIETY DISORDERS AND COMPOSITIONS USEFUL FOR THE SAME” (priority 2022, published 2024).

The conditions of data set [1]: in vivo.
The next data set deals with opioid use disorder. The settings on record: vs. 23% given placebo.

In the case of `O=C1CCc2ccc(OCCCCN3CCN(c4cccc(Cl)c4Cl)CC3)cc2N1` [aripiprazole], the half-life entry in data set [1] was “about 75 hours”. Turning to `O=c1ccc2ccc(OCCCCN3CCN(c4cccc5sccc45)CC3)cc2[nH]1` [brexpiprazole], in data set [1], the half-life entry is reported as “about 91 hours”. As for `O=C1CC[C@@]2(O)[C@H]3Cc4ccc(O)c5c4[C@@]2(CCN3CC2CC2)[C@H]1O5` [naltrexone], the “complete abstinence (opioid-free over 19 weeks of treatment), share of subjects” value in the data set with opioid use disorder is 36%. For the compound `CC1(C)O[C@@H]2[C@@H](CO[C@@]3(COS(N)(=O)=O)OC(C)(C)O[C@@H]23)O1` [topiramate], the half-life entry in data set [1] is “about 21 hours”.
